# Test system: Rattus norvegicus
# Test: Antihyperglycemic activity in normoglycemic male albino Sprague-Dawley rat assessed as improvement in sucrose tolerance at 100 mg/kg, po by Oral sucrose tolerance test
# Type: functional
row,SMILES,Activity
1,COc1ccc(C2=CC(c3ccc(OCc4csc(-c5ccccc5)n4)cc3)NC(=S)N2)cc1 (stereo not drawn),1.05%
2,O=[N+]([O-])c1ccc(C2=NNC(c3ccc(OCc4csc(-c5ccccc5)n4)cc3)C2)cc1 (stereo not drawn),2.47%
3,c1ccc(C2=NNC(c3ccc(OCc4csc(-c5ccccc5)n4)cc3)C2)cc1 (stereo not drawn),7.42%
4,Fc1ccc(C2=CC(c3ccc(OCc4csc(-c5ccccc5)n4)cc3)NC(=S)N2)cc1 (stereo not drawn),8.22%
5,O=[N+]([O-])c1ccc(C2=NOC(c3ccc(OCc4csc(-c5ccccc5)n4)cc3)C2)cc1 (stereo not drawn),0.91%
6,CN(C)C(=N)NC(=N)N [METFORMIN],14.1%
7,Fc1ccc(C2=NNC(c3ccc(OCc4csc(-c5ccccc5)n4)cc3)C2)cc1 (stereo not drawn),10.4%
8,COc1ccc(C2=NOC(c3ccc(OCc4csc(-c5ccccc5)n4)cc3)C2)cc1 (stereo not drawn),8.37%
9,Fc1ccc(C2=NOC(c3ccc(OCc4csc(-c5ccccc5)n4)cc3)C2)cc1 (stereo not drawn),4.88%
10,O=[N+]([O-])c1ccc(C2=CC(c3ccc(OCc4csc(-c5ccccc5)n4)cc3)NC(=S)N2)cc1 (stereo not drawn),7.04%
11,COc1ccc(C2=NNC(c3ccc(OCc4csc(-c5ccccc5)n4)cc3)C2)cc1 (stereo not drawn),0.85%
12,S=C1NC(c2ccccc2)=CC(c2ccc(OCc3csc(-c4ccccc4)n3)cc2)N1 (stereo not drawn),0.07%
13,c1ccc(C2=NOC(c3ccc(OCc4csc(-c5ccccc5)n4)cc3)C2)cc1 (stereo not drawn),2.73%

# Reference: ChEMBL document CHEMBL3425487, “Synthesis of new thiazolylmethoxyphenyl pyrimidines and antihyperglycemic evaluation of the pyrimidines, analogues isoxazolines and pyrazolines” (2015)
